Laboratory results: patent US9072675B2, “Non-irritating benzoyl peroxide” (Essential Ingredients, Inc., priority 2010, dated 2015)

Test system: skin of the infrascapular regions of the back
Assay: Cumulative irritation patch test (12 days, semi-occlusive patches)
Conditions: 25 subjects, 24 hour semi-occlusive patches over 12 days, daily score capped at 3; maximum 900
Experimental: Twenty-five subjects ages 20-65 were requested to bathe or wash as usual before arrival at the facility. Qualified subjects were then prepared for patch application by having the test sites wiped with alcohol and air-dried. […] Patches were applied for approximately a 24 hour period, then removed and discarded by the subject approximately two hours prior to grading. All induction patches were applied to the same sites unless the degree of reaction (cumulative grade 3) to a material or the adhesive necessitated removal. The skin adjacent to the patches was marked using a surgical marker or other suitable marking pen. Prior to each reapplication, the test sites were evaluated. At the final visit, no patches were applied and the patch sites were graded. Skin responses were evaluated according to the following scale by a technical associate of AMA Laboratories, Inc. (scorer) trained in the evaluation of skin using consistent adequate lighting from a 60-watt incandescent blue day light bulb to illuminate the patch area. All reasonable attempts were made to ensure that the same individual did all of the scoring of reactions to the test articles during the course of the study, and was blinded to the treatment assignments and any previous scores. […]

Structure (SMILES): CCCCCCCCCCCCOS(=O)(=O)[O-].[Na+] [Sodium Lauryl Sulfate]
- total cumulative irritancy score: 78
